Patent US4056626A, “Pharmaceutical composition containing benzofuran derivative” (Kakenyaku Kako Co., Ltd., priority 1971, dated 1977)
“And” between values parts separate entries of the source, which are not always exact repeats. Identical values can stand only once. “Also recorded” adds a separate entry of the source.

Experiments:
[1] = test system: tachycardia in hyperthyroidism; experiment: clinical study: tachycardia in hyperthyroidism, combination with antihyperthyroidism medicament; format: in vivo, patients; conditions: in combination with Mercazol, 14 days, per patient
Method: (B) A therapeutic effect of the present pharmaceutical composition in combination with an antihyperthyroidism medicament to tachycardia in hyperthyroidism was investigated.
To six patients of hyperthyroidism shown in Table VIII were orally administered the active ingredient, 2-acetyl-7-(2-hydroxy-3-isopropylaminopropoxy)benzofuran hydrochloride, contained in the capsules obtained in Example 47 and Mercazol in each dose of 30 mg./day (three times per day) for 14 days.

[2] = test system: tachycardia in hyperthyroidism; experiment: clinical study: tachycardia in hyperthyroidism, single administration; format: in vivo, patients; conditions: 14 days
Method: A. A therapeutic effect of the present pharmaceutical composition to tachycardia in hyperthyroidism in case of its signle administration was investigated.
To 12 patients of hyperthyroidism shown in Table VI was orally administered the active ingredient, 2-acetyl-7-(2-hydroxy-3-isopropylaminopropoxy)benzofuran hydrochloride, contained in the capsules obtained in Example 47 in a dose of 30 mg./day (3 times per day) for 14 days. The treatment evaluation was determined according to the following standard:
For reference, a therapeutic effect of an antihyperthyroidism medicament to tachycardia in hyperthyroidism in case of its single administration was investigated.
To 12 patients of hyperthyroidism shown in Table VII was orally administered Mercazol which has been widely employed as an antihyperthyroidism medicament in a dose of 30 mg./day for 14 days.

hypertension = experiment: clinical study of hypertension; format: in vivo; conditions: four hypertensive patients; oral 60 mg./day, 30 days
Description: To a patient of 68 age who was diagnosed as an essential hypertension was orally administered the active ingredient, 2-acetyl-7-(2-hydroxy-3-isopropyl aminopropoxy)benzofuran hydrochloride, […] As a result, the maximum blood pressure of 210 mmHg and the minimum blood pressure of 88 mmHg before treatment were decreased to 176 mmHg and 76 mmHg after treatment, respectively.

cardiac arrhythmias = experiment: clinical study of cardiac arrhythmias; format: in vivo, patients; parameters: key to Treatment evaluation: Extremely effective (++): An outstanding improvement of subjective symptom and an outstanding improvement in electrocardiogram were observed.; Effective (+): Therapeutic effects were clearly observed.; Slightly effective (±): Subjective symptom was fairly decreased and some improvement in electrocardiogram was observed.; Non-effective (-): Any therapeutic effect was not observed; conditions: oral 30 to 60 mg./day, 10 days to 12 weeks
Method: The active ingredient, 2-acetyl-7-(2-hydroxy-3-isopropylaminopropoxy)benzofuran hydrochloride, contained in the capsules obtained in Example 47 was administrered orally in a dose of 30 to 60 mg./day for a period of 10 days to 12 weeks. The treatment evaluation was determined according to the following standard: […]

angina pectoris = experiment: clinical study of angina pectoris; format: in vivo, patients; parameters: key: Extremely effective (++): An outstanding improvement of subjective symptom and an outstanding improvement in electrocardiogram were observed.; Effective (+): Therapeutic effects were clearly observed.; Slightly effective (±): Subjective symptom was fairly decreased and some improvement in electrocardiogram was observed.; Non-effective (-): Any therapeutic effect was not observed; conditions: oral 15 to 60 mg./day, 1 to 10 weeks, per patient, hydrochloride
Method: A clinical study relating to angina pectoris was made covering the patients shown in Table V. The active ingredient, 2-acetyl-7-(2-hydroxy-3-isopropylaminopropoxy)benzofuran hydrochloride, contained in the capsules obtained in Example 47 was administered orally in a dose of 15 to 60 mg./day for a period of 1 to 10 weeks.

[3] = one value per patient, hydrochloride

CC(=O)c1cc2cccc(OCC(O)CNC(C)C)c2o1.Cl (stereo not shown) [2-acetyl-7-(2-hydroxy-3-isopropylaminopropoxy)benzofuran hydrochloride]
Pulse rate after treatment ([1]; each oral 30 mg./day (three times per day), hydrochloride, in beats/min (unit assumed)): 88 and 76 and 78 and 68 and 82 | Side effect ([1]; each oral 30 mg./day): No | Treatment evaluation ([1]; each oral 30 mg./day, hydrochloride): + (Effective (+): The pulse rate before treatment was decreased in a difference of 10 to 19 after treatment.); also recorded: ++ (Extremely effective (++): The pulse rate before treatment was decreased in a difference of not less than 20 after treatment.) | Pulse rate after treatment, average ([2]; 12 patients, oral 30 mg./day, average before treatment 114.5, standard deviation 11.6, in beats/min (unit assumed)): 90.4 | Pulse rate difference, average ([2]; 12 patients, oral 30 mg./day, standard deviation printed 1.1): 23.8 beats/min | Pulse rate difference ([2]; before minus after, oral 30 mg./day (3 times per day), per patient, hydrochloride, in beats/min (unit assumed)): 22 and 32 and 14 and 30 and 51 and 28 and 24 and 20 and 8 and 16 | Side effect ([2]; hyperthyroidism, oral 30 mg./day (3 times per day), per patient): No | Treatment evaluation ([2]; hyperthyroidism, oral 30 mg./day (3 times per day), per patient, hydrochloride): ++ (Extremely effective (++): The pulse rate before treatment was decreased in a difference of not less than 20 after treatment.); also recorded: + (Effective (+): The pulse rate before treatment was decreased in a difference of 10 to 19 after treatment.) | Pulse rate after treatment ([2]; hyperthyroidism, oral 30 mg./day (3 times per day), per patient, hydrochloride, in beats/min (unit assumed)): 80 and 108 and 88 and 100 and 77 and 76 and 84 | good therapeutic results (hypertension): three patients among four, good therapeutic results were obtained | Treatment evaluation (cardiac arrhythmias; cardiac arrhythmias, per patient, hydrochloride): + and ± and - and ++ | Blood pressure after treatment (first figure, systolic) (cardiac arrhythmias; [3]): 96 mmHg and 114 mmHg and 104 mmHg and 130 mmHg and 145 mmHg and 154 mmHg and 165 mmHg and 125 mmHg and 108 mmHg and 135 mmHg and 118 mmHg | Blood pressure after treatment (second figure, diastolic) (cardiac arrhythmias; [3]): 66 mmHg and 70 mmHg and 62 mmHg and 78 mmHg and 110 mmHg and 75 mmHg and 80 mmHg and 68 mmHg | Heart rate/min. after treatment (cardiac arrhythmias; [3]): 60 min⁻¹ and 82 min⁻¹ and 68 min⁻¹ and 72 min⁻¹ and 76 min⁻¹ and 64 min⁻¹ and 100 min⁻¹ | Side effect (cardiac arrhythmias; per patient): No | Treatment evaluation (angina pectoris): ± and + and - and ++
